The target in the test is yeast α-glucosidase enzymes. Briefly: α-Glucosidase inhibitory assay. It is filed as biochemical. The note with it: substrate p-nitrophenyl-α-D-glucopyranoside, pH 6.8, 37 °C.

In brackets after ≈: the same amount, converted by molar mass.

Procedure: The α-glucosidase assay was performed using 50 mM phosphate buffer (pH 6.8). All samples were dissolved in DMSO. An enzyme (2 U/2 mL) 20 µL/well and test samples (0.5 mg/mL) 20 µL/well and 135 µL/well phosphate buffer were loaded into a 96-well plate, followed by 15 min of incubation at 37 °C. Substrate p-nitrophenyl-α-D-glucopyranoside (0.7 mM) 25 µL/well was added to the 96-well plate after 15 min of incubation, and readings were measured at 400 nm for 30 min. DMSO 7% was used as a positive control. Percent inhibition was calculated by using the following formula [30]. % Inhibition=100×O.D of tested samples/O.D. of control−100
OD is the optical density of the tested samples.

Consider `C[C@H]1O[C@H](O[C@H]2[C@H](O)[C@@H](O)[C@@H](O[C@H]3[C@H](O)[C@@H](O)C(O)O[C@@H]3CO)O[C@@H]2CO)[C@H](O)[C@@H](O)[C@@H]1N[C@H]1C=C(CO)[C@@H](O)[C@H](O)[C@H]1O` (stereo partly shown) [acarbose], for which the “IC50 (α-glucosidase inhibition)” value came to 377.26 ± 1.20 mg/L (≈ 584 µM).
